The values that follow come from patent publication US12673035B2, “Solid dosage forms of elafibranor” (Genfit, priority 2023, dated 2026).

Where only a bound is given, the exact number is not on record here.

The test system of data set [1] is mouse. Briefly: Acute toxicity study, single oral doses, mouse. The class given is in vivo. Here is the method:
(§1) According to acute toxicity study results, it can be concluded that elafibranor is extremely safe when administered as single oral doses in rat and mouse, since no sign of toxicity was detected up to the dose of 1000 mg/kg.

Data set [2] deals with patients with PBC with an inadequate response or intolerance to Ursodeoxycholic acid (UDCA). Conditions: phase 3 trial NCT04526665, N Engl J Med 2023; cited from earlier work.
Data set [3] shares this test system. The experiment in a line: Phase 3 double-blind, randomized, placebo-controlled trial in PBC. In kind it is in vivo, human. Conditions: 80 mg once daily. Here is the method: This example describes a double-blind, randomized, placebo-controlled trial to evaluate the efficacy and safety of elafibranor 80 mg once daily (qd) versus placebo in a PBC population.
The study included a screening visit, followed by 52 weeks of double-blind treatment period. Patients attended study visits at randomization, Week 4, 13, 26, and 39 during the treatment period.
Elafibranor was administered per os, once daily at 80 mg, for 52 weeks, in the form of tablets of the invention (Formulation 4). The elafibranor 80 mg tablets contained elafibranor (active ingredient) and excipients (microcrystalline cellulose, povidone, croscarmellose, anhydrous colloidal silica, magnesium stearate, Opadry® II white). The white tablets were provided to the participants in aluminum blisters.
The primary objectives were to compare the effect of daily oral administration of elafibranor 80 mg on changes in relevant biochemical indicators of cholestasis or in pruritus to that of placebo in patients with PBC with an inadequate response or intolerance to Ursodeoxycholic acid (UDCA).

Data set [4] has as its system liver function of subjects. The experiment in a line: Phase 2a clinical studies and Phase 2b clinical trial, liver function. The class given is in vivo, human. Conditions: 80 mg/day for 1 to 3 months (Phase 2a); 80 mg/day and 120 mg/day for 12 months (Phase 2b).
In data set [5] the test system is rat. The experiment in a line: Acute toxicity study, single oral doses, rat. The class given is in vivo. Here is the method: as §1
In data set [6] the test system is patients with PBC and inadequate response to Ursodeoxycholic acid (UDCA). The experiment in a line: Phase 2 double-blind, randomized, placebo-controlled trial in PBC. The class given is in vivo, human. Conditions: for mean relative change from baseline to endpoint in serum ALP / median relative change from baseline to endpoint in the pruritus VAS / treatment effect estimate vs placebo, serum ALP (supportive analysis, ANCOVA with baseline ALP as covariate) / mean relative change from baseline to endpoint in GGT / treatment effect estimate vs placebo, GGT (non-parametric randomization-based ANCOVA) / response rates defined by at least 10%, 20% and 40% decrease in ALP from baseline to endpoint, compared to placebo: 12 weeks; for mean relative change from baseline to endpoint in GGT / treatment effect estimate vs placebo, GGT (non-parametric randomization-based ANCOVA) / response rates defined by at least 10%, 20% and 40% decrease in ALP from baseline to endpoint, compared to placebo: mITT set; for response rates defined by at least 10%, 20% and 40% decrease in ALP from baseline to endpoint, compared to placebo: Fishers exact test, p<0.001; for response rate as defined by Paris I risk scores (ALP≤3×ULN, AST≤2×ULN, bilirubin within normal limits) / response rate as defined by Paris II risk scores (ALP≤1.5×ULN, AST≤1.5×ULN, bilirubin within normal limits) / response rate as defined by Toronto I risk scores (ALP≤1.67×ULN) / response rate as defined by Toronto II risk scores (ALP≤1.75×ULN): baseline to endpoint. Here is the method: This example describes a double-blind, randomized, placebo-controlled trial to evaluate the efficacy and safety of elafibranor 80 mg and 120 mg once daily (qd) versus placebo in a PBC population.
The study included a screening visit, followed by 12 weeks of double-blind treatment period. Patients attended study visits at randomization, Week 2, 4, 8, 12 during the treatment period.
Elafibranor was administered per os, once daily at 80 mg or 120 mg, for 12 weeks, in the form of tablets of the invention (Formulations 4 and 3). The elafibranor 120 mg and 80 mg tablets contained elafibranor (active ingredient) and excipients (microcrystalline cellulose, povidone, croscarmellose, anhydrous colloidal silica, magnesium stearate, Opadry® II white). The white tablets were provided to the participants in aluminum blisters.
The primary objectives were to compare the effect of daily oral administration of elafibranor 80 mg and 120 mg on changes in serum alkaline phosphatase (ALP) to that of placebo in patients with PBC and inadequate response to Ursodeoxycholic acid (UDCA).
The primary endpoint of the study was to evaluate the efficacy of elafibranor 80 mg or 120 mg with respect to relative change from baseline in serum ALP levels compared to placebo.
Absolute changes in serum ALP levels were monitored from Baseline to week 2, 4, 8 and 12.
The treatment effect estimate was −52.0% (95% CI [−62.5; −41.5]) for the elafibranor 80 mg treatment group and −43.9% (95% CI [−55.7; −32.1]) for the elafibranor 120 mg treatment group.
The primary efficacy supportive analysis conducted using an ANCOVA with baseline ALP as a covariate was consistent with the primary efficacy analysis. The treatment effect estimate was −51.4% (95% CI [−63.3; −39.5]) for the elafibranor 80 mg treatment group and −43.9% (95% CI [−55.8; −31.9]) for the elafibranor 120 mg treatment group.
The percentage of patients was calculated who met the definition of PBC responder criteria applying the Paris I, Toronto I, Toronto II, […], Mayo II, and Barcelona disease prognostic risk criteria. Paris I risk scores were defined as ALP≤3×ULN and AST≤2×ULN and bilirubin within normal limits.
Paris II risk scores were defined as ALP≤1.5×ULN and AST≤1.5×ULN and bilirubin within normal limits.
Toronto I risk scores were defined as ALP≤1.67×ULN.
Toronto II risk scores were defined as ALP≤1.75×ULN.
Considering that pruritus is a preeminent adverse event in subjects with PBC, assessment of pruritus was also considered. More specifically, the change from baseline in pruritus (through 5D-itch scale (measuring the degree, duration, direction [improvement or worsening], disability [effect on daily activities], and distribution of itching) and visual analogue scale for pruritus (VAS).
The 5D-itch scale is a reliable, multidimensional measure of itching that has been validated in patients with chronic pruritus to detect changes over time (Elman S, et al., The 5-D itch scale: a new measure of pruritus. Br J Dermatol. 2010; 162(3):587-593). The VAS is a reliable and validated method of pruritus assessment (Reich A, et al., Visual analogue scale: evaluation of the instrument for the assessment of pruritus. Acta Derm Venereol. 2012; 92(5):497-501).

Data set [7] can be described thus: Particle size analysis of jet-milled (micronized) elafibranor. The class given is physicochemical. From the text:
Particle size of agglomeration was identified as playing a primary role in the dissolution and variability in the blend uniformity and content uniformity of tablet formulations. In order to obtain suitable particle size distribution, milling of elafibranor was investigated. The micronisation process acts to accelerate grains of powder, with an air jet, in a tornado like flow path within the micronisation chamber of the mill. As particles travel in the circular path, they collide, which leads to a reduction in particle size. Centrifugal force directs larger particles to the outside of the chamber and smaller particles are concentrated in the centre of the mill where they can be transferred to the outlet when the appropriate particle size has been reached.
The micronisation process of elafibranor has been performed with the following jet-mill equipment: Microniser Alpine 200 Aeroplex in ambient conditions of temperature and hygrometry.
The feeder delivers the dosage to the microniser by two screws. This system allows a regularity of the flow. A disposable sleeve is used to separate the air and the micronised product at the end of the microniser.
The micronised elafibranor powder is then collected into polyethylene bags and the obtained weight at the end of the micronisation operation has been recorded.
acceptance criteria: D50%≤5 μm and D90%≤15 μm

[8] abbreviates: mean of clinical batches #1 to #7.

As to `CSc1ccc(C(=O)/C=C/c2cc(C)c(OC(C)(C)C(=O)O)c(C)c2)cc1` [elafibranor, 2-[2,6-dimethyl-4-[(E)-3-(4-methylsulfanylphenyl)-3-oxoprop-1-enyl]phenoxy]-2-methylpropanoic acid], the “dose up to which no sign of toxicity was detected” value in data set [1] is given as at least 1000 mg/kg. The “improvements in relevant biochemical indicators of cholestasis vs placebo” value in data set [2] is given as “significantly greater improvements in relevant biochemical indicators of cholestasis than placebo”. The “biochemical response (primary end point), patients” value in data set [3] (52 weeks (Formulation 4), 55 of 108 patients) worked out at 51%. Moreover, the “difference vs placebo in biochemical response” value in data set [3] (52 weeks, 95% CI 32 to 57) was determined as 47 percentage points. Besides, the “patients in whom the alkaline phosphatase level normalized” value in data set [3] (at week 52) amounted to 15%. For the same compound, the “difference vs placebo in alkaline phosphatase normalization” value in data set [3] (at week 52, 95% CI 6 to 23) came to 15 percentage points. For the same compound, the “difference vs placebo in least-squares mean change on the WI-NRS” value in data set [3] (through week 52, moderate-to-severe pruritus, 95% CI −1.99 to 0.42, P=0.20) is on record as −0.78. Further, the “least-squares mean change from baseline through week 52 on the WI-NRS” value in data set [3] (patients with moderate-to-severe pruritus) was −1.93. Moreover, the “effects on liver function, relevant to PBC” value in data set [4] is “Beneficial effects”. Also, in data set [5], the “dose up to which no sign of toxicity was detected” value is on record as at least 1000 mg/kg. In addition, in data set [6] (80 mg once daily per os, 12 weeks (Formulation 4 tablets)), the “treatment effect estimate vs placebo, relative change from baseline in serum ALP (primary analysis, non-parametric randomization-based ANCOVA)” value was −52.0%. Also, in data set [6] (80 mg once daily), the “mean relative change from baseline to endpoint in serum ALP” value is recorded as −48.3%; the “median relative change from baseline to endpoint in the pruritus VAS” value is recorded as −23.7%; the “treatment effect estimate vs placebo, serum ALP (supportive analysis, ANCOVA with baseline ALP as covariate)” value is −51.4%; the “mean relative change from baseline to endpoint in GGT” value is reported as −37.1%. Further, in data set [6] (80 mg once daily), the “treatment effect estimate vs placebo, GGT (non-parametric randomization-based ANCOVA)” value is given as −38.6%; the “response rates defined by at least 10%, 20% and 40% decrease in ALP from baseline to endpoint, compared to placebo” value was “statistically significantly greater proportion of responders”; the “response rate as defined by Paris I risk scores (ALP≤3×ULN, AST≤2×ULN, bilirubin within normal limits)” value was found to be 80.0%; the “response rate as defined by Paris II risk scores (ALP≤1.5×ULN, AST≤1.5×ULN, bilirubin within normal limits)” value turned out to be 53.3%. Moreover, in data set [6] (80 mg once daily), the “response rate as defined by Toronto I risk scores (ALP≤1.67×ULN)” value is reported as 66.7% and the “response rate as defined by Toronto II risk scores (ALP≤1.75×ULN)” value was 66.7%. Besides, the “treatment effect estimate vs placebo, relative change from baseline in serum ALP (primary analysis, non-parametric randomization-based ANCOVA)” value in data set [6] (120 mg once daily per os, 12 weeks (Formulation 3 tablets)) is on record as −43.9%. For the same compound, in data set [6] (120 mg once daily), the “mean relative change from baseline to endpoint in serum ALP” value is −40.6%; the “median relative change from baseline to endpoint in the pruritus VAS” value is −49.5%; the “treatment effect estimate vs placebo, serum ALP (supportive analysis, ANCOVA with baseline ALP as covariate)” value is −43.9%; the “mean relative change from baseline to endpoint in GGT” value is −40.0%. Further, in data set [6] (120 mg once daily), the “treatment effect estimate vs placebo, GGT (non-parametric randomization-based ANCOVA)” value is recorded as −39.9%; the “response rates defined by at least 10%, 20% and 40% decrease in ALP from baseline to endpoint, compared to placebo” value is listed as “statistically significantly greater proportion of responders”; the “response rate as defined by Paris I risk scores (ALP≤3×ULN, AST≤2×ULN, bilirubin within normal limits)” value is listed as 78.6%; the “response rate as defined by Paris II risk scores (ALP≤1.5×ULN, AST≤1.5×ULN, bilirubin within normal limits)” value is given as 50.0%. Moreover, in data set [6] (120 mg once daily), the “response rate as defined by Toronto I risk scores (ALP≤1.67×ULN)” value is listed as 78.6% and the “response rate as defined by Toronto II risk scores (ALP≤1.75×ULN)” value is 78.6%.

For the compound `CSc1ccc(C(=O)/C=C/c2cc(C)c(OC(C)(C)C(=O)O)c(C)c2)cc1` [micronized elafibranor], the D50% was 2.387 μm in data set [7] (clinical batch #1); 3.511 μm in data set [7] (clinical batch #2); 2.53 μm in data set [7] (clinical batch #3); 4.079 μm in data set [7] (clinical batch #4); 2.171 μm in data set [7] (clinical batch #5); 2.089 μm in data set [7] (clinical batch #6). Also, the D50% in data set [7] (clinical batch #7) turned out to be 2.523 μm. In addition, the D90% in data set [7] (clinical batch #1) worked out at 6.292 μm; in data set [7] (clinical batch #2), 10.06 μm; in data set [7] (clinical batch #3) it was 6.439 μm; in data set [7] (clinical batch #4) it was 10.895 μm; in data set [7] (clinical batch #5), 6.589 μm; in data set [7] (clinical batch #6), 6.495 μm. Further, the D90% in data set [7] (clinical batch #7) came out at 6.671 μm. The D50% mean in data set [7] (setting [8]) came out at 2.756 μm. In data set [7] (setting [8]), this compound yielded a D90% mean of 7.634 μm.
